Laboratory results: ChEMBL document CHEMBL4138122, “Azaphenothiazines - promising phenothiazine derivatives. An insight into nomenclature, synthesis, structure elucidation and biological properties” (Eur J Med Chem, 2017)
Converted amounts (≈) assume the structure as drawn. One block for each compound: values may come before it.

What was measured:
MCF7 = assay: Cytotoxicity against human MCF7 cells; assay type: functional, cell-based
[1] = biological target: Intercellular adhesion molecule 1 (Homo sapiens, UniProt P05362); assay: Inhibition of ICAM1 (unknown origin)
Sequence of Intercellular adhesion molecule 1 (P05362 whole entry): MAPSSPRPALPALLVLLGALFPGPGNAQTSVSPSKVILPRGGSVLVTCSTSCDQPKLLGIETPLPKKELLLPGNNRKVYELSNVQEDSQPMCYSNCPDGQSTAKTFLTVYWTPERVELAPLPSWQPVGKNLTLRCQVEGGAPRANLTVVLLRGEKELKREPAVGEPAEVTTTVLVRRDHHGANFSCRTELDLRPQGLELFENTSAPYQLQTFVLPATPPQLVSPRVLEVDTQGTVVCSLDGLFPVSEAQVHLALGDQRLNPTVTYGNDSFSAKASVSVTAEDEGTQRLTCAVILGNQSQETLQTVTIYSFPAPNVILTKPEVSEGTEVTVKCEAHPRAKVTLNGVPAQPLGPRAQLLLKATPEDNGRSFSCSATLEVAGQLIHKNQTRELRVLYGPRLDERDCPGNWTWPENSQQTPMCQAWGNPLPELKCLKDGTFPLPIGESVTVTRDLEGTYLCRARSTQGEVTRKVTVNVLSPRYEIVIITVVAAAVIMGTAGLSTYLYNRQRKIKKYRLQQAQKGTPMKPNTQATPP

C32 = assay: Cytotoxicity against human C32 cells; assay type: functional, cell-based
MDA-MB-231 = assay: Cytotoxicity against human MDA-MB-231 cells; assay type: functional, cell-based
SNB-19 = assay: Cytotoxicity against human SNB19 cells; assay type: functional, cell-based
Escherichia coli = assay: Antibacterial activity against Escherichia coli; assay type: functional; conditions: Escherichia coli
Staphylococcus aureus = assay: Antibacterial activity against Staphylococcus aureus; assay type: functional

Structure (SMILES): CN1CCCCC1CCN1c2ccncc2Sc2ncccc21 (stereo not drawn)
IC50 (MCF7): 28.4 to 32.9 µg/mL (≈ 87 to 101 µM)

IC50 [1]: 270 to 1400 nM
Structure (SMILES): NC(=O)C1CCCN(Cc2ccc3c(c2)Nc2nccnc2S3)C1 (stereo not drawn)

Structure (SMILES): CCCCOc1ccc2c(c1)Nc1c(c[n+](C)c3ccccc13)S2.[Cl-]
IC50 (C32): 0.5 to 7.5 µg/mL
IC50 (MDA-MB-231): 0.5 to 12 µg/mL
IC50 (SNB-19): 0.7 to 11.5 µg/mL

IC50 [1]: 270 to 1400 nM
Structure (SMILES): NC(=O)C1CCN(Cc2ccc3c(c2)Nc2nccnc2S3)CC1

MIC (Escherichia coli): 14 µg/mL
Structure (SMILES): C[n+]1cc2c(c3ccccc31)Nc1cccc(O)c1S2.[Cl-]

IC50 [1]: 420 to 1000 nM
Structure (SMILES): O=C(O)c1ccc(C2CCN(Cc3ccc4c(c3)Nc3nccnc3S4)CC2)cc1

Structure (SMILES): C=CCN1c2ccncc2Sc2ncccc21
IC50 (MCF7): 28.4 to 32.9 µg/mL (≈ 118 to 136 µM)

IC50 [1]: 270 to 1400 nM
Structure (SMILES): c1cnc2c(n1)Nc1cc(CN3CCCCC3)ccc1S2

Structure (SMILES): C[n+]1cc2c(c3ccccc31)Nc1ccc(N3CCNCC3)cc1S2.[Cl-]
IC50 (C32): 0.5 to 7.5 µg/mL
IC50 (MDA-MB-231): 0.5 to 12 µg/mL
IC50 (SNB-19): 0.7 to 11.5 µg/mL

IC50 [1]: 420 to 1000 nM
Structure (SMILES): CC(C)(CCC1CCN(Cc2ccc3c(c2)Nc2nccnc2S3)CC1)C(=O)O

IC50 [1]: 270 to 1400 nM
Structure (SMILES): O=S(=O)(NC1CCN(Cc2ccc3c(c2)Nc2nccnc2S3)CC1)c1ccccc1

Structure (SMILES): COc1ccc2c(c1)Nc1c(c[n+](C)c3ccccc13)S2.[Cl-]
IC50 (C32): 0.5 to 7.5 µg/mL
IC50 (MDA-MB-231): 0.5 to 12 µg/mL
IC50 (SNB-19): 0.7 to 11.5 µg/mL

IC50 [1]: 530 nM
Structure (SMILES): O=C(O)CC1CCN(Cc2ccc3c(c2)Nc2nccnc2S3)CC1

Structure (SMILES): CN1c2ccncc2Sc2ncccc21
IC50 (MCF7): 28.4 to 32.9 µg/mL (≈ 132 to 153 µM)

IC50 [1]: 270 to 1400 nM
Structure (SMILES): c1cnc2c(n1)Nc1cc(CN3CCC3)ccc1S2

MIC (Staphylococcus aureus): >=200 ug
Structure (SMILES): CCn1c(=O)c2c(c3ccccc31)Nc1ccccc1S2

MIC (Staphylococcus aureus): >=200 ug
Structure (SMILES): Cn1c(=O)c2c(c3ccccc31)Nc1ccccc1S2

Structure (SMILES): FC(F)(F)c1cccc2c1Sc1cnc3ccccc3c1N2
IC50 (SNB-19): 10 µg/mL (≈ 31.4 µM)
IC50 (MCF7): 9.76 µg/mL (≈ 30.7 µM)

IC50 [1]: 270 to 1400 nM
Structure (SMILES): CN(C)S(=O)(=O)N1CCN(Cc2ccc3c(c2)Nc2nccnc2S3)CC1

Structure (SMILES): C[n+]1cc2c(c3ccccc31)Nc1ccc(N3CCCCC3)cc1S2.[Cl-]
IC50 (C32): 0.5 to 7.5 µg/mL
IC50 (MDA-MB-231): 0.5 to 12 µg/mL
IC50 (SNB-19): 0.7 to 11.5 µg/mL

IC50 [1]: 270 to 1400 nM
Structure (SMILES): O=S(=O)(NC1CCN(Cc2ccc3c(c2)Nc2nccnc2S3)CC1)C(F)(F)F

IC50 [1]: 270 to 1400 nM
Structure (SMILES): CC(=O)N1CCN(Cc2ccc3c(c2)Nc2nccnc2S3)CC1

IC50 [1]: 270 to 1400 nM
Structure (SMILES): NS(=O)(=O)NC1CCN(Cc2ccc3c(c2)Nc2nccnc2S3)CC1

Structure (SMILES): CCN(CC)CC#CCN1c2ccncc2Sc2ccncc21
IC50 (C32): 24.8 to 29.2 µg/mL (≈ 76.4 to 90 µM)

Structure (SMILES): CCN(C)CC#CCN1c2ccncc2Sc2ccncc21
IC50 (C32): 24.8 to 29.2 µg/mL (≈ 79.9 to 94.1 µM)

Structure (SMILES): CN(C)CCCN1c2ccncc2Sc2ncccc21
IC50 (C32): 6.3 µg/mL (≈ 22 µM)
IC50 (MCF7): 11.3 µg/mL (≈ 39.5 µM)

IC50 [1]: 470 nM
Structure (SMILES): O=C(O)CCC1CCN(Cc2ccc3c(c2)Nc2nccnc2S3)CC1

IC50 [1]: 270 to 1400 nM
Structure (SMILES): c1cnc2c(n1)Nc1cc(CN3CCCCCCC3)ccc1S2

IC50 [1]: 420 to 1000 nM
Structure (SMILES): CC(CCC1CCN(Cc2ccc3c(c2)Nc2nccnc2S3)CC1)C(=O)O (stereo not drawn)

Structure (SMILES): C(#CCN1c2ccncc2Sc2ccncc21)CN1CCCCC1
IC50 (C32): 24.8 to 29.2 µg/mL (≈ 73.7 to 86.8 µM)

IC50 [1]: 270 to 1400 nM
Structure (SMILES): O=S(=O)(NC1CCN(Cc2ccc3c(c2)Nc2nccnc2S3)CC1)N1CCCCC1

IC50 [1]: 270 to 1400 nM
Structure (SMILES): CC(=O)NC1CCN(Cc2ccc3c(c2)Nc2nccnc2S3)CC1

IC50 [1]: 270 to 1400 nM
Structure (SMILES): c1cnc2c(n1)Nc1cc(CN3CCCCCC3)ccc1S2

IC50 [1]: 420 to 1000 nM
Structure (SMILES): O=C(O)CC1CC2CCC(C1)N(Cc1ccc3c(c1)Nc1nccnc1S3)C2 (stereo not drawn)

IC50 [1]: 270 to 1400 nM
Structure (SMILES): CNS(=O)(=O)NC1CCN(Cc2ccc3c(c2)Nc2nccnc2S3)CC1

Structure (SMILES): C#CCN1c2ccncc2Sc2ncccc21
IC50 (MCF7): 28.4 to 32.9 µg/mL (≈ 119 to 137 µM)

Structure (SMILES): C[n+]1cc2c(c3ccccc31)Nc1c(O)cc(-c3ccccc3)cc1S2.[Cl-]
IC50 (C32): 0.5 to 7.5 µg/mL
IC50 (MDA-MB-231): 0.5 to 12 µg/mL
IC50 (SNB-19): 0.7 to 11.5 µg/mL

Structure (SMILES): c1cnc(N2c3ccncc3Sc3ncccc32)nc1
IC50 (MCF7): 0.73 µg/mL (≈ 2.61 µM)

Structure (SMILES): C#CCN1c2cccc(C(F)(F)F)c2Sc2cnc3ccccc3c21
IC50 (MDA-MB-231): 7.71 µg/mL (≈ 21.6 µM)

IC50 [1]: 420 nM
Structure (SMILES): C/C(=C\CC1CCN(Cc2ccc3c(c2)Nc2nccnc2S3)CC1)C(=O)O

IC50 [1]: 270 to 1400 nM
Structure (SMILES): NS(=O)(=O)N1CCN(Cc2ccc3c(c2)Nc2nccnc2S3)CC1

IC50 [1]: 420 to 1000 nM
Structure (SMILES): O=C(O)C1CCN(Cc2ccc3c(c2)Nc2nccnc2S3)CC1

MIC (Staphylococcus aureus): >=200 ug
Structure (SMILES): O=c1[nH]c2ccccc2c2c1Sc1ccccc1N2

Structure (SMILES): COc1ccc2c(c1)Sc1c[n+](C)c3ccccc3c1N2.[Cl-]
IC50 (C32): 0.5 to 7.5 µg/mL
IC50 (MDA-MB-231): 0.5 to 12 µg/mL
IC50 (SNB-19): 0.7 to 11.5 µg/mL
